Measured values: patent US6955873B1, “Diagnosis and treatment system for reward deficiency syndrome (RDS) and related behaviors” (priority 1999, dated 2005)
Read-outs that look alike come from different tables or passages of the source.

Experiments:
[1] = tested on: young obese women; details: cited from earlier work
[2] = tested on: patients following weight reduction; details: after six months; cited from earlier work
[3] = tested on: obese subjects genotyped for the dopamine D2 receptor gene (DRD2); details: 400 mcg of CrP/day, cited from earlier work
[4] = tested on: over-eating patients; details: 200 and 400 mcg, compared with placebo; cited from earlier work
[5] = tested on: over-eating patients; details: 400 mcg vs placebo, cited from earlier work
[6] = tested on: obese subjects genotyped for the dopamine D2 receptor gene (DRD2); assay: Chromium picolinate body composition response as a function of DRD2 Taq1 A1 genotype; format: in vivo, human
Text: In order to resolve the issue of non-responders, the inventor decided to test the hypothesis that typing the obese patients by genotyping the DRD2 gene prior to treatment with CrP would result in a differential treatment outcome. […] One of us (KB) predicted carriers of the DRD2 A2 allele would retain the positive metabolic effects of P, but in contrast the DRD2 A1 carriers, because there is a proclivity to increased carbohydrate binging, would possibly mask the metabolic effects of CrP on weight loss and change in body fat attenuating any positive effects. One prophetic example as described earlier (see page 48):
The inventor genotyped 130 obese subjects for the dopamine D2 receptor gene (DRD2) utilizing standard PCR techniques. The subjects were assessed for scale weight and for percent body fat using dual energy X-ray absorptiometry (DEXAR). The subjects were divided into matched placebo and chromium picolinate (CrP) groups (400μg. per day). The sample was separated into two independent groups; those with either an A1/A1 or A1/A2 allele and those with only the A2/A2 allelic pattern. Each of these groups was tested separately for differences between placebo and treatment means for a variety of measures of weight change. These measures consisted of calculations of the percent of fat weight change; the change in fat weight; the change in body weight; the change in free mass, the percent change of fat weight; the body composition index; and the body weight change in kilograms.

In the case of Chromium Picolinate, the weight gain ([1]; CrP supplementation alone, 43 pts, 63 days) is listed as “CrP supplementation resulted in significant weight”, the weight loss ([1]; exercise training combined with CrP supplementation) is listed as “supplementation resulted in significant weight loss” and the “non-fat related weight loss” value [2] is listed as “lean body mass and avoided non-fat related weight”. For the same substance, the “changes in fat weight, body weight, percent change in weight, body weight changes in kgms” value ([3]; A1/A2 and A1/A1 carriers, listed as CrP) was “non-”, the “changes in fat weight, body weight, percent change in weight, body weight changes in kgms” value ([3]; A2/A2 group) was “changes in kgms were all significant in A2/A2 group,” and the “changes in Body Mass composition indicies” value [4] was 200 and 400 mcg of CrP brought about significant. For the same substance, the “reduction in body fat” value ([5]; p < 0.001) was “greater reduction in body fat (p < 0.001), significantly”, the weight lost ([5]; p < 0.001) was “group, 400 mcg CrP group lost significantly more” and the body composition ([5]; p < 0.004) was “improve body composition (p < 0.004)”. For the same substance, the body fat lost ([5]; p < 0.004) was “group, 400 mcg CrP group lost significantly more”, the “body weight change in kilograms, treatment vs placebo” value ([6]; A2/A2, p<0.012) was “significant” and the “change in fat weight, treatment vs placebo” value ([6]; A2/A2, p<0.041) was “significant”. For the same substance, the “percent change in weight, treatment vs placebo” value ([6]; A2/A2, p<0.044) was “significant”, the “responsiveness to the effects of CrP” value ([6]; DRD2 A2 allele carriers versus DRD2 A1 allele carriers, 400 ug per day) was “more responsive” and the “any parameter of weight change, treatment vs placebo” value ([6]; subjects possessing a DRD2 A1 allele) was “no significance”.
